In patent publication US20080161320A1, “FUSED BICYCLIC PYRIMIDINES AS PTK INHIBITORS CONTAINING A ZINC BINDING MOIETY” (priority 2006, published 2008):

What was measured:
[1] = system: HDAC; assay: HDAC fluorimetric assay kit (AK-500, Biomol), HeLa nuclear extract; format: biochemical
Method: HDAC inhibitors were screened using an HDAC fluorimetric assay kit (AK-500, Biomol, Plymouth Meeting, Pa.). […] Each assay was setup as follows: Defrosted all kit components and kept on ice until use. […] Prepared dilutions of Trichostatin A (TSA, positive control) and tested compounds in assay buffer (5× of final concentration). Diluted Fluor de Lys™ Substrate in assay buffer to 100 uM (50 fold=2× final). Diluted Fluor de Lys™ developer concentrate 20-fold (e.g. 50 μl plus 950 μl Assay Buffer) in cold assay buffer. Second, diluted the 0.2 mM Trichostatin A 100-fold in the 1× Developer (e.g. 10 μl in 1 ml; final Trichostatin A concentration in the 1× Developer=2 μM; final concentration after addition to HDAC/Substrate reaction=1 μM). Added Assay buffer, diluted trichostatin A or test inhibitor to appropriate wells of the microtiter plate. Added diluted HeLa extract or other HDAC sample to all wells except for negative controls.

[2] = target: human HER2/ErbB2 (Homo sapiens, UniProt P04626); assay: HTScan Receptor Kinase Assay, HER2/ErbB2;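 also: europium time-resolved fluorescence detection of anti-phosphotyrosine antibody binding to biotinylated FLT3 (Tyr589) peptide phosphorylated by the kinase, 30 min reaction at room temperature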
[3] = target: human VEGFR2 (Homo sapiens, UniProt P35968); assay: HTScan Receptor Kinase Assay, VEGFR2;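 also: recombinant GST-His-tagged human VEGFR2 kinase domain phosphorylating biotinylated gastrin precursor peptide, 30 min at room temperature, phosphotyrosine detected by Europium-labelled antibody time-resolved fluorescence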
[4] = target: T1, human EGFR (Homo sapiens, UniProt P00533); assay: HTScan Receptor Kinase Assay, EGFR; format: biochemical
T1 construct: human EGFR (His672-Ala1210); GST (N); purchased Cell Signaling Technologies; host or cells: baculovirus expression system
T1 sequence (P00533 672-1210): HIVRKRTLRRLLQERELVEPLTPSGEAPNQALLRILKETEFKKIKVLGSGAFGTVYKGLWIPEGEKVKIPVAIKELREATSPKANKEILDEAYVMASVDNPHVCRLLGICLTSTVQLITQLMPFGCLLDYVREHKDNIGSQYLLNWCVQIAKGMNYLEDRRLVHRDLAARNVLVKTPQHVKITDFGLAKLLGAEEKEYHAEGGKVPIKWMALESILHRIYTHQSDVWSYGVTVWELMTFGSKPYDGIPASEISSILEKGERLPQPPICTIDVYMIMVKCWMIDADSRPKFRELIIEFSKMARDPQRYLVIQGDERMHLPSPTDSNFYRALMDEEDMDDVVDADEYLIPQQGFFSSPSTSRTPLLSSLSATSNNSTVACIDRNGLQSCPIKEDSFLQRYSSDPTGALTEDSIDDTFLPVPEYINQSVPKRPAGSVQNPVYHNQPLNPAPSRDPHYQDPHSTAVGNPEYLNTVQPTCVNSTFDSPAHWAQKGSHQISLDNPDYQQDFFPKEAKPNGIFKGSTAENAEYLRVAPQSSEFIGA

Sequence of human HER2/ErbB2 (P04626 676-1255): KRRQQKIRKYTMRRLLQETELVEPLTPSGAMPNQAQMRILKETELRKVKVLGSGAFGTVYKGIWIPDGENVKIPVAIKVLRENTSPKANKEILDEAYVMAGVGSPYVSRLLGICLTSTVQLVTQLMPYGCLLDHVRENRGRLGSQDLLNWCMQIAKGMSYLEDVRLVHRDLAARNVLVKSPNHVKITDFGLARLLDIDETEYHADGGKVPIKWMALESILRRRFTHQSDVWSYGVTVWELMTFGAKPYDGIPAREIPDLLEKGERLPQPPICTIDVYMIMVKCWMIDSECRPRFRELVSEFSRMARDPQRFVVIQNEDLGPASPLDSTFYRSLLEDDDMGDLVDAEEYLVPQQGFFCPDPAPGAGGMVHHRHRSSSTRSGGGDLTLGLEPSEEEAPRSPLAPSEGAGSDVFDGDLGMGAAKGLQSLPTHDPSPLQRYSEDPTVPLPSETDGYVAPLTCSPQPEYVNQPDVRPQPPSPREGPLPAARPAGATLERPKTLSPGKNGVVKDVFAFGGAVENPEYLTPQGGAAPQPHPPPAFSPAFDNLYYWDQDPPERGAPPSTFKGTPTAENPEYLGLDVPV
Sequence of human VEGFR2 (P35968 807-1356 limits assumed): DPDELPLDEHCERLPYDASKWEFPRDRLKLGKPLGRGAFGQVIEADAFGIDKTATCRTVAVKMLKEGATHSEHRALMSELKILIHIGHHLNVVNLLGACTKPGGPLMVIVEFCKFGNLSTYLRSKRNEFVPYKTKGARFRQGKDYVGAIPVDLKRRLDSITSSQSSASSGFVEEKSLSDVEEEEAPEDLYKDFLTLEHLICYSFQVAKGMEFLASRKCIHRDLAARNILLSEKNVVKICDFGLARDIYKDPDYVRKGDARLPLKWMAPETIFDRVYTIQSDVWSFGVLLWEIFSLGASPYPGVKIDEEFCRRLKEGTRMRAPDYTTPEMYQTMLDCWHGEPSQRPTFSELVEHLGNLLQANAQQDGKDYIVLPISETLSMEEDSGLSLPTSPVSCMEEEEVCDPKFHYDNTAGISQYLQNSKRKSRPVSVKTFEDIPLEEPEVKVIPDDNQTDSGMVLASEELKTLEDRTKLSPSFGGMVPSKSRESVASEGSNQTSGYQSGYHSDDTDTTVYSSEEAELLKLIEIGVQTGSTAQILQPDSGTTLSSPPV

| SMILES | IC50 [1] [nM] | IC50 [2] [nM] | IC50 [3] [nM] | IC50 [4] [nM] |
| --- | --- | --- | --- | --- |
| C[C@@H](Nc1ncnc2[nH]c(-c3ccc(CN4CCN(CCCCC(=O)NO)CC4)cc3)cc12)c1ccccc1 [Compound 14, (R)—N-Hydroxy-5-(4-(4-(4-(1-phenylethylamino)-7H-pyrrolo[2,3-d]pyrimidin-6-yl)benzyl)piperazin-1-yl)pentanamide] | 1000 to 10000 | 100 to 1000 | 100 to 1000 | < 100 |
| C[C@@H](Nc1ncnc2[nH]c(-c3ccc(CNCc4ccc(/C=C/C(=O)NO)cc4)cc3)cc12)c1ccccc1 [Compound 45, (R,E)-N-hydroxy-3-(4-((4-(4-(1-phenylethylamino)-7H-pyrrolo[2,3-d]pyrimidin-6-yl)benzylamino)methyl)phenyl)acrylamide] |  | > 10000 | > 10000 | > 10000 |
| C[C@@H](Nc1ncnc2[nH]c(-c3ccc(CN4CCC(NCCCCCCC(=O)NO)CC4)cc3)cc12)c1ccccc1 [Compound 56, (R)—N-hydroxy-7-(1-(4-(4-(1-phenylethylamino)-7H-pyrrolo[2,3-d]pyrimidin-6-yl)benzyl)piperidin-4-ylamino)heptanamide] | 1000 to 10000 |  |  |  |
| C[C@@H](Nc1ncnc2[nH]c(-c3ccc(CN4CCN(CCOCCCCC(=O)NO)CC4)cc3)cc12)c1ccccc1 [Compound 50, (R)—N-hydroxy-5-(2-(4-(4-(4-(1-phenylethylamino)-7H-pyrrolo[2,3-d]pyrimidin-6-yl)benzyl)piperazin-1-yl)ethoxy)pentanamide] | 1000 to 10000 |  |  |  |
| C[C@@H](Nc1ncnc2c1cc(-c1ccc(C(=O)NCCNCCCCCCC(=O)NO)cc1)n2C)c1ccccc1 [Compound 58] | 100 to 1000 | 100 to 1000 | 1000 to 10000 |  |
| C[C@@H](Nc1ncnc2[nH]c(-c3ccc(NC(=O)Nc4ccc(/C=C/C(=O)NO)cc4)cc3)cc12)c1ccccc1 [Compound 47] | 1000 to 10000 |  |  |  |
| C[C@@H](Nc1ncnc2[nH]c(-c3ccc(NC(=O)Nc4ccc(C(=O)NO)cc4)cc3)cc12)c1ccccc1 [Compound 46] | 100 to 1000 |  |  |  |
| C[C@@H](Nc1ncnc2[nH]c(-c3ccc(CNCCC(=O)NO)cc3)cc12)c1ccccc1 [Compound 2, (R)—N-Hydroxy-3-(4-(4-(1-phenylethylamino)-7H-pyrrolo[2,3-d]pyrimidin-6-yl)benzylamino)-propanamide] | > 10000 |  | 100 to 1000 |  |
| C[C@@H](Nc1ncnc2[nH]c(-c3ccc(CN4CCC(NCCCCCC(=O)NO)CC4)cc3)cc12)c1ccccc1 [Compound 55, (R)—N-hydroxy-6-(1-(4-(4-(1-phenylethylamino)-7H-pyrrolo[2,3-d]pyrimidin-6-yl)benzyl)piperidin-4-ylamino)hexanamide] | 1000 to 10000 |  |  |  |
| C[C@@H](Nc1ncnc2[nH]c(-c3ccc(CN4CCN(CCCCCC(=O)NO)CC4)cc3)cc12)c1ccccc1 [Compound 15, (R)—N-Hydroxy-6-(4-(4-(4-(1-phenylethylamino)-7H-pyrrolo[2,3-d]pyrimidin-6-yl)benzyl)piperazin-1-yl)hexanamide] | 100 to 1000 | 100 to 1000 | 100 to 1000 |  |
| C[C@@H](Nc1ncnc2[nH]c(-c3ccc(CNCC(=O)NO)cc3)cc12)c1ccccc1 [Compound 1, (R)—N-Hydroxy-2-(4-(4-(1-phenylethylamino)-7H-pyrrolo[2,3-d]pyrimidin-6-yl)benzylamino)acetamide] | 1000 to 10000 | 1000 to 10000 |  | 1000 to 10000 |
| C[C@@H](Nc1ncnc2[nH]c(-c3ccc(OCCNCCCCCCCC(=O)NO)cc3)cc12)c1ccccc1 [Compound 61, (R)—N-hydroxy-8-(2-(4-(4-(1-phenylethylamino)-7H-pyrrolo[2,3-d]pyrimidin-6-yl)phenoxy)ethylamino)octanamide] | 100 to 1000 | < 100 |  |  |
| C[C@@H](Nc1ncnc2c1cc(-c1ccc(CNCCN)cc1)n2CCCCCC(=O)NO)c1ccccc1 [Compound 63] | 100 to 1000 |  |  |  |
| C[C@@H](Nc1ncnc2[nH]c(-c3ccc(NCCCCCC(=O)NO)cc3)cc12)c1ccccc1 [Compound 66, (R)—N-hydroxy-6-(4-(4-(1-phenylethylamino)-7H-pyrrolo[2,3-d]pyrimidin-6-yl)phenylamino)hexanamide] |  | < 100 | < 100 | < 100 |
| C[C@@H](Nc1ncnc2[nH]c(-c3ccc(OCCCNCCCCCC(=O)NO)cc3)cc12)c1ccccc1 [Compound 62] | 1000 to 10000 |  |  |  |
| C[C@@H](Nc1ncnc2c1cc(-c1ccc(N)cc1)n2CCCCCC(=O)NO)c1ccccc1 [Compound 64] | 100 to 1000 |  |  |  |
| C[C@@H](Nc1ncnc2[nH]c(-c3ccc(OCCNCCCCCC(=O)NO)cc3)cc12)c1ccccc1 [Compound 59, (R)—N-hydroxy-6-(2-(4-(4-(1-phenylethylamino)-7H-pyrrolo[2,3-d]pyrimidin-6-yl)phenoxy)ethylamino)hexanamide] | 100 to 1000 |  |  |  |
| C[C@@H](Nc1ncnc2[nH]c(-c3ccc(CN4CCC(NCCCCCCCC(=O)NO)CC4)cc3)cc12)c1ccccc1 [Compound 57, (R)—N-hydroxy-8-(1-(4-(4-(1-phenylethylamino)-7H-pyrrolo[2,3-d]pyrimidin-6-yl)benzyl)piperidin-4-ylamino)octanamide] | 100 to 1000 | < 100 |  |  |

Other lines, results leading:

| IC50 [1] [nM] | IC50 [2] [nM] | IC50 [3] [nM] | IC50 [4] [nM] | SMILES |
| --- | --- | --- | --- | --- |
| < 100 |  |  |  | C[C@@H](Nc1ncnc2c1cc(-c1ccc(N)cc1)n2CCCCCCC(=O)NO)c1ccccc1 [Compound 65] |
| 100 to 1000 | 100 to 1000 | 100 to 1000 | 100 to 1000 | O=C(CCCCCN1CCN(Cc2ccc(-c3cc4c(NCc5ccccc5)ncnc4[nH]3)cc2)CC1)NO [Compound 36] |
| < 100 | 100 to 1000 | 1000 to 10000 | 100 to 1000 | C[C@@H](Nc1ncnc2[nH]c(-c3ccc(OCCCCCCC(=O)NO)cc3)cc12)c1ccc(F)cc1 [Compound 37] |
| 100 to 1000 | 1000 to 10000 | 1000 to 10000 | < 100 | C[C@@H](Nc1ncnc2[nH]c(-c3ccc(NCc4ccc(/C=C/C(=O)NO)cc4)cc3)cc12)c1ccccc1 [Compound 42, (R,E)-N-Hydroxy-3-(4-((4-(4-(1-phenylethylamino)-7H-pyrrolo[2,3-d]pyrimidin-6-yl)phenylamino)methyl)phenyl)acrylamide] |
| < 100 | 100 to 1000 | 100 to 1000 | < 100 | C[C@@H](Nc1ncnc2[nH]c(-c3ccc(C(=O)NCCNCCCCCCC(=O)NO)cc3)cc12)c1ccccc1 [Compound 31, (R)—N-(2-(7-(Hydroxyamino)-7-oxoheptylamino)ethyl)-4-(4-(1-phenylethylamino)-7H-pyrrolo[2,3-d]pyrimidin-6-yl)benzamide] |
| 100 to 1000 | 100 to 1000 | 100 to 1000 | < 100 | C[C@@H](Nc1ncnc2[nH]c(-c3ccc(NC(=O)CCCC(=O)NO)cc3)cc12)c1ccccc1 [Compound 25, (R)—N^1-Hydroxy-N^5-(4-(4-(1-phenylethylamino)-7H-pyrrolo[2,3-d]pyrimidin-6-yl)phenyl)glutaramide] |
| 100 to 1000 | < 100 | 100 to 1000 | < 100 | C[C@@H](Nc1ncnc2[nH]c(-c3ccc(CN4CCN(CCCCCCC(=O)NO)CC4)cc3)cc12)c1ccccc1 [Compound 16, (R)—N-Hydroxy-7-(4-(4-(4-(1-phenylethylamino)-7H-pyrrolo[2,3-d]pyrimidin-6-yl)benzyl)piperazin-1-yl)heptanamide] |
| < 100 | 100 to 1000 | 1000 to 10000 | < 100 | C[C@@H](Nc1ncnc2[nH]c(-c3ccc(OCCCCCC(=O)NO)cc3)cc12)c1ccccc1 [Compound 21, (R)—N-hydroxy-6-(4-(4-(1-phenylethylamino)-7H-pyrrolo[2,3-d]pyrimidin-6-yl)phenoxy)hexanamide] |
| 100 to 1000 | 100 to 1000 | 100 to 1000 | < 100 | C[C@@H](Nc1ncnc2[nH]c(-c3ccc(C(=O)NCCNCCCCCC(=O)NO)cc3)cc12)c1ccccc1 [Compound 30, (R)—N-(2-(6-(Hydroxyamino)-6-oxohexylamino)ethyl)-4-(4-(1-phenylethylamino)-7H-pyrrolo[2,3-d]pyrimidin-6-yl)benzamide] |
| 100 to 1000 | 100 to 1000 | 1000 to 10000 | < 100 | O=C(NO)c1ccc(-c2cc3c(NCc4ccccc4)ncnc3[nH]2)cc1 [Compound 40] |
| 100 to 1000 | 100 to 1000 | 100 to 1000 | < 100 | C[C@@H](Nc1ncnc2[nH]c(-c3ccc(OCCCC(=O)NO)cc3)cc12)c1ccccc1 [Compound 19, (R)—N-Hydroxy-4-(4-(4-(1-phenylethylamino)-7H-pyrrolo[2,3-d]pyrimidin-6-yl)phenoxy)propanamide] |
| 100 to 1000 | 100 to 1000 | 100 to 1000 |  | C[C@@H](Nc1ncnc2[nH]c(-c3ccc(CN4CCN(CCCCCC(=O)NO)CC4)cc3)cc12)c1ccc(F)cc1 [Compound 35] |
| < 100 |  |  |  | C[C@@H](Nc1ncnc2[nH]c(-c3ccc(CN4CCN(CCOCCCCCC(=O)NO)CC4)cc3)cc12)c1ccccc1 [Compound 51, (R)—N-hydroxy-6-(2-(4-(4-(4-(1-phenylethylamino)-7H-pyrrolo[2,3-d]pyrimidin-6-yl)benzyl)piperazin-1-yl)ethoxy)hexanamide] |
